Laboratory results from patent publication US20240197700A1, “Methods and Compositions for Treating Lysosomal Storage Disorders” (Sanford Health, priority 2021, published 2024).
Entries after “also recorded” stand apart in the source; their conditions may differ.

What was measured:
[1] = test system: Cln2^R207X mice; assay: SubC burden (immunohistochemistry) in brain of Cln2^R207X mice; format: in vivo, mouse; conditions: for Subunit C burden: somatosensory cortex
Method: (§1) Specific experimental details are included in figure legends. In general, after collection and preparation, MEFs and PNCs were dosed with vehicle or AF38469 (40 nM, 400 nM. or 4 μM) on DIV3 and DIV5. On DIV7, cells were treated with the following dyes: Hoechst 33342 (1:1000 dilution), LysoTrackerT™ Red DND-99 (1:10,000 dilution), fixed, and imaged. Mice were given vehicle or AF38469 (78.125 μg/ml, 3.125 μg/ml, 0.3125 μg/ml or 0.03125 μg/ml equating approximately to 250 μg/mouse/day, 10 μg/mouse/day, 1 μg/mouse/day, and […], respectively, given a mouse's daily water intake of approximately 3.2 ml per day) in drinking water beginning at wean. Body weight was measured bi-weekly, and a force actimeter test was performed on Cln2^R207X mice at 10 weeks of age. Body weight was measured every month for Cln3^Δex7/8 mice. At 11 and 16 weeks of age, respectively, Cln2^R207X and Cln3^Δex7/8 mice along with age matched wild type control mice were CO2 euthanized and intracardially perfused with PBS. Brains were collected and placed on a 1 mm sagittal brain block. Brains were sliced at the midline and 3 mm right of the midline. One hemisphere was fixed in 4% PFA and sectioned at 50 microns on a vibratome. Immunohistochemistry was performed on free-floating sections. For mitochondrial ATP synthase subunit C (SubC), glial fibrillary acidic protein (GFAP), and cluster of differentiation 68 (CD68) immunolabeling, primary antibodies included anti-SubC (Abcam, ab181243; 1:1000), anti-GFAP (Dako, Z0334; 1:5000), anti-CD68 (AbD Serotec, MCA1957; 1:2000), and secondary antibodies included anti-rabbit biotinylated (Vector Labs, BA-1000 1:1000) and anti-rat (Vector Labs, BA-9400 1:1000). Coverslips were mounted on slides using antifade-mounting media and were stored in the dark before imaging. Sections were imaged and analyzed using an Aperio Digital Pathology Slide Scanner (AT2) and associated software. Images were extracted from S1BF of the somatosensory cortex and the VPM/VPL of the thalamus, with multiple images taken of multiple tissues from each animal.
(§2) Short-term chronic treatment with AF38469 reduces storage material burden in Cln2^R207X and Cln3^Δex7/8 mice. Beginning at wean, wild type and Cln2^R207X mice were treated with vehicle (0.2408% DMSO) or AF38469 (0.03125 μg/ml, 0.3125 μg/ml, 3.125 μg/ml, 78.125 μg/ml) continuously through the drinking water continuing until sacrifice at 11 weeks. […] Sections were imaged and analyzed using an Aperio Digital Pathology Slide Scanner (AT2) and associated software. […] Percent area of immunoreactivity were quantified using a threshold analysis in ImageJ™. […]

[2] = test system: TFEB target genes; assay: Comparative transcriptomic analysis (RNA sequencing, DEGs) in wild type MEFs; format: cell-based, mouse; conditions: 40 nM, dosed DIV3, RNA isolation DIV5
Method: Comparative transcriptomic analysis of differentially expressed genes in AF38469 treated and vehicle treated wild type mouse embryonic fibroblasts. Wild type mouse embryonic fibroblasts were treated with vehicle or AF38469 (40 nM). Cells were plated on in vitro day 0, and cells were dosed with drug-containing media on DIV3, collection and RNA isolation occurred on DIV5. RNA sequencing and differentially expressed gene (DEG) analysis was performed with Novogene. DEGs were compared to lists of lysosomal genes and genes under TFEB regulation.

[3] = test system: Cln2^R207X mice; assay: Microglial activation (CD68) in brain of Cln2^R207X mice; format: in vivo, mouse
Method: as §1
as §2, with “impacts glial activation” for “reduces storage material burden”, “Cln2^R207X” for “Cln2^R207X and Cln3^Δex7/8”

## Cc1cccc(NC(=O)c2ccc(C(F)(F)F)cc2C(=O)O)n1 [AF38469, 2-((6-methylpyridin-2-yl)carbamoyl)-5-(trifluoromethyl)benzoic acid]
[1]; 0.03125 μg/ml, 0.3125 μg/ml in drinking water, 11 weeks
  Subunit C burden: significantly decreased
[1]; 3.125 μg/ml, 78.125 μg/ml in drinking water, VPM/VPL of the thalamus, 11 weeks, vs vehicle Cln2^R207X
  SubC burden: did not have an impact
[1]; 78.125 μg/ml in drinking water, 11 weeks
  Subunit C burden: significantly decreased
[1]; overall statement, short term treatment, Cln2^R207X
  SubC accumulation: reduces
[2]
  all lysosomal differentially expressed genes or lysosomal genes not regulated by TFEB: no distinct pattern of up or down regulation
  expression of TFEB target genes: stimulated increased expression; also recorded: stimulates; also recorded: distinct pattern of upregulation
[3]; 3.125 μg/ml, 78.125 μg/ml, somatosensory cortex
  microglial activation (CD68): did not significantly impact
[3]; 78.125 μg/ml, VPM/VPL of the thalamus
  microglial activation (CD68): significantly increased
[3]; higher doses, summary statement
  CD68 reactivity: increased or had no impact
[3]; lower doses 0.03125 μg/ml, 0.3125 μg/ml, somatosensory cortex
  microglial activation (CD68): significantly and potently decreased
